Measurements taken from US20150099800A1, “NOVEL LIPASE INHIBITORS, REPORTER SUBSTRATES AND USES THEREOF” (Northeastern University, priority 2012, published 2015).
Where two headings read alike, the source gives them in different places.

Tests used:
[1] = biological target: T1, rFAAH (Rattus norvegicus, UniProt P97612); test: rFAAH coumarin substrate fluorescence assay; assay type: biochemical
T1 construct: His (N); made in house; host or cells: E. coli (cell line provided by the Cravatt group)
T1 sequence (P97612 30-579 limits assumed): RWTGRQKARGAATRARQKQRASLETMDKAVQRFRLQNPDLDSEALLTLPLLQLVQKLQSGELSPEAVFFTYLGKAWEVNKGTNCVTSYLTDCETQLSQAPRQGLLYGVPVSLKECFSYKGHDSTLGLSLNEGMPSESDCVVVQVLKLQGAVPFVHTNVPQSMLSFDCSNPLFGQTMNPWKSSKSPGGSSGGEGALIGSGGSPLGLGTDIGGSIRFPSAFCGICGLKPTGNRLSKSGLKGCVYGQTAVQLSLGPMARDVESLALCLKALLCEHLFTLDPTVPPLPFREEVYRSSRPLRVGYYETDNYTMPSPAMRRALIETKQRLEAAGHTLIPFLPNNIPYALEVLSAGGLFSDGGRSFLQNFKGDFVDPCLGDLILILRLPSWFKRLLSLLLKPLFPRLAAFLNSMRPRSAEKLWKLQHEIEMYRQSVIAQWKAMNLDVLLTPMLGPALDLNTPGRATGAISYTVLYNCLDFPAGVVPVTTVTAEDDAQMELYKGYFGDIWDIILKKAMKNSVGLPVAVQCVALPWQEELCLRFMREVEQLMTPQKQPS

[2] = biological target: T2, MAGL (Homo sapiens, UniProt Q99685); test: hMAGL coumarin substrate fluorescence assay; assay type: biochemical; parameters: The N-terminal his-tagged full length human monoacylglycerol lipase used; His (N); made in house; host or cells: E. coli
T2 sequence (Q99685 1-303): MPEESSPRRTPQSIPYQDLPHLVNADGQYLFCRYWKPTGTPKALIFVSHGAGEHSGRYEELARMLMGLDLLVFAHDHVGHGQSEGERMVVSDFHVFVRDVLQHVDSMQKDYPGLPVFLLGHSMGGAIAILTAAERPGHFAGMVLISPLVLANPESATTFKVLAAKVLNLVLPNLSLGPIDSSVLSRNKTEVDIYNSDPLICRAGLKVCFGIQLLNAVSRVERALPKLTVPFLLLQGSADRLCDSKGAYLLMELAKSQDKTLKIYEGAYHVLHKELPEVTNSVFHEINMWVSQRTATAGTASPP

[3] = tested on: Lipoprotein Lipase (Bacterial); assay type: biochemical, Pseudomonas sp.
[4] = biological target: T3, hDAGLα (Homo sapiens, UniProt Q9Y4D2)
T3 sequence (Q9Y4D2 1-1042): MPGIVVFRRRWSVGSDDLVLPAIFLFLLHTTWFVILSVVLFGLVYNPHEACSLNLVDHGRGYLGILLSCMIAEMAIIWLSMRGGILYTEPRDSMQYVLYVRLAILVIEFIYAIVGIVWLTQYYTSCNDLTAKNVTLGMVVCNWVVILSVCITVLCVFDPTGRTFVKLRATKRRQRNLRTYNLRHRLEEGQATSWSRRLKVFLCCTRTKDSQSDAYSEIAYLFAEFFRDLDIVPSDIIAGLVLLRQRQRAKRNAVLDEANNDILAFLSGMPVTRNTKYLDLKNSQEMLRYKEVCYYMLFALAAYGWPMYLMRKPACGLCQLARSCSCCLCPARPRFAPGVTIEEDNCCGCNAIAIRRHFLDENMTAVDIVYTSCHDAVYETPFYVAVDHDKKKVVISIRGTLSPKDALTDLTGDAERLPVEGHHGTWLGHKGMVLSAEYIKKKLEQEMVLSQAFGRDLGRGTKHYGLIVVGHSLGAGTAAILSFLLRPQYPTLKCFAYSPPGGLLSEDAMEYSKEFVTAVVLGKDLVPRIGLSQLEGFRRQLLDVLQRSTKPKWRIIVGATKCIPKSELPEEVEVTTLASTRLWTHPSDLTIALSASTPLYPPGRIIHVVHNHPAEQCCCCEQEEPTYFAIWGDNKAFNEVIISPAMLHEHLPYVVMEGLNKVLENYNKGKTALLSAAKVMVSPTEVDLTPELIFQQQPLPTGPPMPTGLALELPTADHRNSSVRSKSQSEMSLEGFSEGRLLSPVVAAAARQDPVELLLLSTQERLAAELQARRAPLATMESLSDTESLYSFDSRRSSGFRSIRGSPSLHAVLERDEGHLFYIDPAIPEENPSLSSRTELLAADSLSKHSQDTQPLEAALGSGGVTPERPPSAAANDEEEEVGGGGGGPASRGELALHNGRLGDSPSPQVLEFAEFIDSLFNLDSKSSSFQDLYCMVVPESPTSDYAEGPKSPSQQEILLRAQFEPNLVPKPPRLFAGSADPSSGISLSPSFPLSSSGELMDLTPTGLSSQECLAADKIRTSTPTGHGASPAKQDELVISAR

[5] = biological target: T4, Pancreatic Lipase (Porcine) (Sus scrofa, UniProt P00591); assay type: biochemical
T4 construct: purchased Sigma L3126
T4 sequence (P00591 1-450): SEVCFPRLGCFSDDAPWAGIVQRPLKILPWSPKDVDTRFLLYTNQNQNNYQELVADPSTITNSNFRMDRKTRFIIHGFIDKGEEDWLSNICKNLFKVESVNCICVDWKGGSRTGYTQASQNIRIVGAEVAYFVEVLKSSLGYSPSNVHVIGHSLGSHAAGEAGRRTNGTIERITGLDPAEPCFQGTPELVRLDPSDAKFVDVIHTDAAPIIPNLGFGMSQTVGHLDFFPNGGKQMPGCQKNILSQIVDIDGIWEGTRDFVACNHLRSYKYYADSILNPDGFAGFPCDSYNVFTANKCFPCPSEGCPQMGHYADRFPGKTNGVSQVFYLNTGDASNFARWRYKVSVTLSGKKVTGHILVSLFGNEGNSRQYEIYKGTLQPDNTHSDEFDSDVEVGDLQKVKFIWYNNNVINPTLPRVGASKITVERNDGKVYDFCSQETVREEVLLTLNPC

[6] = biological target: T3, hDAGLα; remark: listed apart in the source
[7] = 10 μM, 0.05% Triton X-100 present

For `CCCCCCCCCCC[C@@H](C[C@@H]1OC(=O)[C@H]1CCCCCC)OC(=O)[C@H](CC(C)C)NC=O` [Compound 3, tetrahydrolipstatin], the inhibition at 10 µM ([1]; read-out: rFAAH inhibition at 10 μM (%)) was 6%, the inhibition at 10 µM ([2]; read-out: hMAGL inhibition at 10 μM (%)) was 47% and the “inhibition of bacterial lipoprotein lipase, FRET” value ([3]; preliminary studies) was “potent inhibition”. The IC50 ([3]; reporter compound (17), read-out: apparent IC50 with lipoprotein lipase, FRET assay) was about 0.1 µM, the “inhibition of hDAGLα at 10 μM” value ([4]; 10 μM) was “complete inhibition” and the “inhibition of porcine triacylglycerol lipase, FRET” value ([5]; preliminary studies) was “potent inhibition”. It also gave an inhibition at 10 µM ([5]; read-out: Pancreatic Lipase (Porcine) inhibition at 10 μM (%)) of 96%.

For `CCCCCCCCCCCC(CC1OC(=O)C1CCCCCC)OC(=O)C(NC=O)C(C)CC` (centres unmarked) [Compound 6], the “rFAAH inhibition at 10 μM (%)” value ([1]; 10 μM) was 28%, the “hMAGL inhibition at 10 μM (%)” value ([2]; 10 μM) was 39% and the “Lipoprotein Lipase (Bacterial) inhibition at 10 μM (%)” value ([3]; 10 μM) was 86%. For the same compound, the “hDAGLα inhibition at 10 μM TLC (with Triton X-100) (%)” value (from here on “hDAGLα inhibition at 10 μM TLC … (%)”) [4, 7] was “(78^A) %”, the “hDAGLα inhibition at 10 μM (0.05% Triton X-100) (%), FRET” value ([6]; 10 μM) was 98% and the “hDAGLα inhibition at 10 μM detergent free (%), FRET” value ([6]; 10 μM, detergent free) was 90%. For the same compound, the “Pancreatic Lipase (Porcine) inhibition at 10 μM (%)” value ([5]; 10 μM) was 99%.

With `CCCCCCCCCCC[C@@H](C[C@@H]1OC(=O)[C@H]1CCCCCC)OC(=O)[C@H](NC=O)[C@@H](C)CC` [Compound 7] the “rFAAH inhibition at 10 μM (%)” value ([1]; 10 μM) was 0%, the “hMAGL inhibition at 10 μM (%)” value ([2]; 10 μM) was 42% and the “Lipoprotein Lipase (Bacterial) inhibition at 10 μM (%)” value ([3]; 10 μM) was 68%. For the same compound, the “hDAGLα inhibition at 10 μM TLC … (%)” value [4, 7] was “(86^A) %”, the “hDAGLα inhibition at 10 μM (0.05% Triton X-100) (%), FRET” value ([6]; 10 μM) was 98% and the “hDAGLα inhibition at 10 μM detergent free (%), FRET” value ([6]; 10 μM, detergent free) was 90%. The “Pancreatic Lipase (Porcine) inhibition at 10 μM (%)” value ([5]; 10 μM) was 95%.

With `O=C(Oc1ccc([N+](=O)[O-])cc1)N1CCC(C(O)(c2ccc3c(c2)OCO3)c2ccc3c(c2)OCO3)CC1` [JZL184] the “rFAAH inhibition at 10 μM (%)” value [1] was 97^E %, the “hMAGL inhibition at 10 μM (%)” value [2] was 100^F % and the “Lipoprotein Lipase (Bacterial) inhibition at 10 μM (%)” value [3] was 36%. For the same compound, the “hDAGLα inhibition at 10 μM TLC … (%)” value [4] was “(37^B) %”, the “inhibition of hDAGLα in radio-TLC assays” value [4] was “poor inhibitors” and the “hDAGLα inhibition at 10 μM detergent free (%), FRET” value [6] was 59, 44° %. The “hDAGLα inhibition at 10 μM detergent free (%), FRET, marker °” value [6] was 59, 44° % and the “Pancreatic Lipase (Porcine) inhibition at 10 μM (%)” value [5] was 36%.
